Source: paper PMC12382614, “(Oxidopyridyl)Porphyrins of Different Lipophilicity: Photophysical Properties, ROS Production and Phototoxicity on Melanoma Cells Under CoCl2-Induced Hypoxia” (Antioxidants, 2025)
Read-outs that look alike come from different tables or passages of the source.

Experiments:
[1] = Laser flash photolysis (LFP), triplet excited state properties; format: physicochemical; settings: MeOH
Description: Laser flash photolysis (LFP) was performed using an LP980 transient absorption spectrometer (Edinburgh Instruments) equipped with a continuous beam (or pulse mode) Xenon lamp passing through the sample. A nanosecond Nd:YAG laser (Quantel, Q-smart 450, 5 ns pulse duration, 10 Hz, excitation wavelength 355 nm) was then used to excite the sample perpendicular to the lamp beam. The laser beam energy was adjusted to below 5 mJ. The ground state absorbance of the porphyrins in MeOH was adjusted to 0.20–0.25 at 355 nm (the laser excitation wavelength) and the solutions were purged with high-purity N2 for at least 15 min prior to taking the measurements. The samples were prepared for kq determination in an air atmosphere that was N2-purged for 15 min and O2-purged for 15 min before the measurements were taken. The ground state absorption spectra of the samples were also recorded after purging the sample with N2 or O2, and after transient absorption (TAS) measurements were taken to track the differences in every step of the measurement process to ensure that no photoproducts were formed. All measurements were performed at 25 °C in 1 cm quartz cuvettes. Laser flash photolysis was used to measure the kinetics of triplet state depopulation (τT) and triplet-triplet absorption spectra, and to calculate the intersystem crossing quantum yield (ΦISC) and quenching rate constants of triplet excited states by molecular oxygen (kq). To calculate ΦISC, the first step was the calculation of the molar absorption coefficient of the triplet state using the singlet depletion method, completing the first step according to Equation (S2). The ΦISC values were estimated by using a comparative method with TPP (ΦISC = 0.87 in toluene) as the standard. The ΦISC was calculated according to Equation (S3). Triplet excited state lifetimes were determined by fitting the triplet decays to the equation for the mixed first- and second-order decay, as previously described, and the quenching rate constant of a triplet excited state by molecular oxygen was calculated using the Stern–Volmer equation (Equation (S4)).

MeWo = assay: Photocytotoxicity, MTT assay; format: cell-based, human; settings: red light 643 nm 30 min; for IC50: Homo sapiens, MeWo, light or radiation study, 6 h incubation
Description: (§1) For (photo)cytotoxicity assays, stock solutions of porphyrins were prepared in DMSO and dissolved in DMEM to the final concentrations. The porphyrin incubation time was 6h. Irradiation of the cells was with red light (λ = 643 nm) for 30 min (light dose, 3.6 J/cm^2). Nonirradiated cells were used to test the dark toxicity. All measurements were performed in three individual experiments, and the results are shown as the proliferation (%) of the cells and were calculated as IC50 values.
(§2) The cytotoxicity of (oxidopyridyl)porphyrins was assessed by an MTT assay on the HDF, MeWo and A375 cell lines after 6 h of incubation with porphyrins, without irradiation, or after 30 min of irradiation with red light (λ = 643 nm), and under conditions of normoxia or hypoxia. To induce hypoxia, 100 µM of CoCl2 was added at least two hours before the porphyrins. […] Oxygen is also one of the substrates for the activity of prolyl hydroxylases; therefore, in both cases, the result is the blockage of hydroxylation of HIF-1α and, consequently, its increase and stabilisation, which, in the case of CoCl2-induced hypoxia, can be maintained for several hours.

A375 = assay: Photocytotoxicity, MTT assay; format: cell-based, human; settings: red light 643 nm 30 min; for IC50: Homo sapiens, A-375, light or radiation study, 6 h incubation
Description: as §1, §2

HDF = assay: Photocytotoxicity, MTT assay; format: cell-based, human; settings: for IC50: Homo sapiens, HDF, light or radiation study, 6 h incubation, red light 643 nm 30 min
Description: as §1, §2

[2] = UV-Vis absorption spectra in MeOH; format: physicochemical
Description: (§3) The absorption spectra of (oxidopyridyl)porphyrins were recorded in HPLC grade MeOH on a Cary UV 60 (Agilent Technologies, Santa Clara, CA, USA), in a wavelength range of 300–700 nm. The fluorescence spectra in HPLC grade MeOH were recorded on a Cary Eclipse (Agilent Technologies) in a wavelength range of 500–800 nm after excitation at the Soret band wavelength (λ ~ 420 nm). The slits of the spectrometer were set to a bandpass of 5 nm for the excitation and 5 nm for the emission. To calculate the fluorescence quantum yields, the measurements were conducted on an FS5 Edinburgh Instruments spectrometer. Prior to taking the measurements, the solutions were purged with high-purity N2 for at least 15 min. The absorbance of the solutions was set to A < 0.1 at 405 nm and 550 nm, which settings were used for the excitation process. Emission was recorded from 550 to 800 nm, with slits set to the bandpass corresponding to 2 nm for the excitation, and 3 nm for the emission. Fluorescence quantum yield (ΦFL) was calculated in comparison to the tetraphenylporphyrin (TPP; ΦFL = 0.11 [23]) as a standard, according to Equation (S1) and following an equation previously described elsewhere.

[3] = tested on: HDF, MeWo and A375 cell lines; assay: (Photo)cytotoxicity MTT assay, statements made for all cell lines; format: cell-based, human; settings: Homo sapiens, light or radiation study; irradiation 643 nm, with or without CoCl2; read-out: IC50 in all the tested cells
Description: as §1, §2

[4] = Fluorescence spectra and fluorescence quantum yield in MeOH; format: physicochemical
Description: as §3

MeWo cells = assay: Intracellular localisation by fluorescence microscopy with DIOC6(3); format: cell-based, human; settings: 5 µM in medium, 6 h
Description: In the localisation tests, the cells were incubated with porphyrins and DIO6(3), a marker for mitochondria and endoplasmic reticulum (ER), which was used to investigate the colocalisation of porphyrins with the mentioned organelles. All images were analysed using the ImageJ program, while Pearson’s correlation coefficient was calculated using the CellSense program, fluorescence microscope software produced by Olympus.
To determine any potential preference for the ER and mitochondria, the localisation of (oxidopyridyl)porphyrins substituted with an alkyl chain of 9, 13 and 17 C atoms was observed by fluorescence microscopy incubation with 3,3′-dihexyloxacarbocyanine iodide (DIOC6(3)), a marker that is commonly used to target vesicle membranes, mitochondria and ER [39].

CCCCCCCCCCCCCCCCCC(=O)Nc1ccc(-c2c3nc(c(-c4ccc[n+]([O-])c4)c4ccc([nH]4)c(-c4ccc[n+]([O-])c4)c4nc(c(-c5ccc[n+]([O-])c5)c5ccc2[nH]5)C=C4)C=C3)cc1 [TOPyP3-C17H35, 5-(4-Octadecanamidophenyl)-10,15,20-tris(1-oxido-3-pyridyl)porphyrin]
τT (lifetime of 3PS*) [1]: 0.96 ms | t from transient absorption kinetics at 450 nm ([1]; N2, 355 nm laser excitation, Figure S9 inset): 987 µs | τT (lifetime of the triplet excited state) ([1]; N2-purged, 25 °C): 960 ± 30 μs | kq (O2) (quenching rate constant of the triplet excited state by O2) ([1]; Stern–Volmer): 1.4e+09 M⁻¹ s⁻¹ | ΦISC (quantum yield of intersystem crossing) ([1]; comparative method with TPP, estimated): 0.51 | εT-T (molar absorption coefficient of the triplet state) ([1]; singlet depletion method): 58 300 M^−1cm^−1 | IC50 (MeWo; 3.6 J/cm^2, 100 μM CoCl2 at least 2 h before porphyrin, read-out: IC50 MeWo CoCl2): 680 ± 190 nM | IC50 (MeWo; 3.6 J/cm^2, normoxia, read-out: IC50 MeWo No CoCl2): 660 ± 140 nM | SI (IC50 (HDF) / IC50 (melanoma cells)) MeWo 100 µM CoCl2 (MeWo; CoCl2-induced hypoxia): 1.6 | SI (IC50 (HDF) / IC50 (melanoma cells)) MeWo No CoCl2 (MeWo; normoxia): 2.0 | IC50 (A375; 3.6 J/cm^2, 100 μM CoCl2 at least 2 h before porphyrin, read-out: IC50 A375 CoCl2): 940 ± 150 nM | IC50 (A375; 3.6 J/cm^2, normoxia, read-out: IC50 A375 No CoCl2): 770 ± 80 nM | SI (IC50 (HDF) / IC50 (melanoma cells)) A375 100 µM CoCl2 (A375; CoCl2-induced hypoxia): 1.2 | SI (IC50 (HDF) / IC50 (melanoma cells)) A375 No CoCl2 (A375; normoxia): 1.7 | reduction in the proliferation of cells (HDF; 1 µM, irradiation 643 nm, normoxia): ~ 40% | IC50 (HDF; 3.6 J/cm^2, 100 μM CoCl2 at least 2 h before porphyrin, read-out: IC50 HDF CoCl2): 1090 ± 290 nM | IC50 (HDF; 3.6 J/cm^2, normoxia, read-out: IC50 HDF No CoCl2): 1310 ± 570 nM | ε Qx (0-0) [2]: 1600 M⁻¹ cm⁻¹ | ε Qx (1-0) [2]: 4500 M⁻¹ cm⁻¹ | ε Qy (0-0) [2]: 4300 M⁻¹ cm⁻¹ | ε Qy (1-0) [2]: 15000 M⁻¹ cm⁻¹ | ε Soret (B) [2]: 275400 M⁻¹ cm⁻¹ | λabs Qx (0-0) [2]: 646 nm | λabs Qx (1-0) [2]: 587 nm | λabs Qy (0-0) [2]: 547 nm | λabs Qy (1-0) [2]: 512 nm | λabs Soret (B) [2]: 417 nm | IC50 [3]: ≤ 1000 nM | Stokes shift [4]: 2 nm | ΦFL (fluorescence quantum yield) ([4]; N2-purged, TPP as reference): 0.047 ± 0.002 | λFL Q(0,0) ([4]; excitation at Soret band): 648 nm | λFL Q(0,1) ([4]; excitation at Soret band): 713 nm | solubility (porphyrin not internalised, aggregates outside the cells) (MeWo cells): low solubility
